Experimental data as given in patent US9284272B2, “Inhibitors of histone methyltransferase G9a” (AbbVie Inc., priority 2014, dated 2016).
Several values for one entry are separate records, joined by “and”; a condition that tells them apart may be missing. Equal values may be shown once. Read-outs that look alike come from different tables or passages of the source.

Experiments:
[1] = test system: H3K9me2; assay: Cellular immunostaining (In-Cell Western), H3K9Me2 antibody immunofluorescence in PC3 cells; type: cell-based, human; details: for H3K9me2 % inhibition, single well of triplicate / inhibition at 0.03 µM / inhibition at 0.1 µM / inhibition at 0.3 µM / inhibition at 1 µM / inhibition at 3 µM: 72 hours; for inhibition at 0.03 µM / inhibition at 0.1 µM / inhibition at 0.3 µM / inhibition at 1 µM / inhibition at 3 µM: Homo sapiens, PC-3, 72 h
Method: For comparison, the known G9a inhibitor UNC0638 (see structure in FIG. 1) was evaluated in this study concurrently.
Human PC3 cells (ATCC, Manassas, Va.) were grown in RPMI+10% Fetal Bovine Serum and plated at 5,000 cells per well in a 96-well plate. The following day compounds and DMSO controls were added in triplicate at the indicated concentrations. Cells were fixed following incubation at 37° C. for 72 hours with 10% formaldehyde and then permeabilized with 0.1% Triton X-100. Cells were then washed with PBS and blocked with 0.1% BSA/PBS solution. Mouse anti-H3K9me2 (1:200, AbCam #1220, Cambridge, Mass.) and rabbit anti-Histone H3 (1:500, Cell Signaling Technology #4499, Danvers, Mass.) primary antibodies in 0.3% BSA were then added together to each well and incubated overnight at 4° C. The following day cells were washed in PBS-T (PBS with 0.1% Tween) followed by addition of anti-mouse (IR800) and anti-rabbit (IR700) secondary antibodies (LI-COR Biosciences, Lincoln, Nebr.) and incubated for one hour at room temperature. Cells were then washed with PBS-T followed by PBS and liquid was removed from all wells. The plate was scanned using both the 700 nm (anti-rabbit detection) and 800 nm (anti-mouse detection) channels on the Odyssey Imaging System (LI-COR Biosciences, Lincoln, Nebr.). Data was quantified using the LI-COR imaging suite and graphed as % inhibition H3K9me2/total H3/well compared to DMSO control wells. Wells treated in triplicate were averaged for each indicated concentration and error bars represent the standard deviation (n=3).

[2] = test system: human peripheral blood mononucleated cells (PBMCs); assay: Viability of PBMCs (Caspase-Glo 3/7, CellTiter Glo); type: cell-based; details: 0-10 uM, 48 h
Method: Following treatment, Caspase 3/7 activity (i.e., a marker of apoptosis) was assessed by the Caspase-Glo 3/7 assay system (FIG. 7A), and cell viability was assessed by CellTiter Glo assay (FIG. 7B).

[3] = Cytotoxicity, CellTiter Glo; type: cell-based; details: human, MHH-65-1 cells, 7-day proliferation, neural crest derived lines
[4] = Cytotoxicity, CellTiter Glo; type: cell-based; details: human, CAPO-ES1 cells, 7-day proliferation, neural crest derived lines
[5] = Cytotoxicity, CellTiter Glo; type: cell-based; details: human, PA-1 cells, 7-day proliferation, neural crest derived lines
[6] = Cytotoxicity, CellTiter Glo; type: cell-based; details: human, SK-N-MC cells, 7-day proliferation, neural crest derived lines
[7] = Cytotoxicity, CellTiter Glo; type: cell-based; details: human, G-401 cells, 7-day proliferation, neural crest derived lines
[8] = Cytotoxicity, CellTiter Glo; type: cell-based; details: human, ZR7350 cells, 7-day proliferation, neural crest derived lines
[9] = Cytotoxicity, CellTiter Glo; type: cell-based; details: human, US2OS cells, 7-day proliferation, neural crest derived lines
[10] = Cytotoxicity, CellTiter Glo; type: cell-based; details: human, DaoY cells, 7-day proliferation, neural crest derived lines
[11] = in vitro; type: cell-based; details: PH-1; 7-day proliferation, neural crest derived lines; read-out: IC50 cytotoxicity
[12] = Cytotoxicity, CellTiter Glo; type: cell-based; details: human, TC-71 cells, 7-day proliferation, neural crest derived lines
[13] = Cytotoxicity, CellTiter Glo; type: cell-based; details: human, IMR-32 cells, 12-day proliferation, neural crest derived lines
[14] = Cytotoxicity, CellTiter Glo; type: cell-based; details: A-201 cells, 12-day proliferation, neural crest derived lines
[15] = Cytotoxicity, CellTiter Glo; type: cell-based; details: human, THP-1 cells, 5-day proliferation
[16] = Cytotoxicity, CellTiter Glo; type: cell-based; details: human, RS4;11 cells, 5-day proliferation
[17] = Cytotoxicity, CellTiter Glo; type: cell-based; details: human, RPMI8226 cells, 5-day proliferation
[18] = Cytotoxicity, CellTiter Glo; type: cell-based; details: human, OPM2 cells, 5-day proliferation
[19] = Cytotoxicity, CellTiter Glo; type: cell-based; details: human, L-363 cells, 5-day proliferation
[20] = Cytotoxicity, CellTiter Glo; type: cell-based; details: human, KMS12 cells, 5-day proliferation
[21] = Cytotoxicity, CellTiter Glo; type: cell-based; details: human, KMS11 cells, 5-day proliferation
[22] = Cytotoxicity, CellTiter Glo; type: cell-based; details: human, Kasume-1 cells, 5-day proliferation
[23] = Cytotoxicity, CellTiter Glo; type: cell-based; details: human, HL-60 cells, 5-day proliferation
[24] = Cytotoxicity, CellTiter Glo; type: cell-based; details: human, H929 cells, 5-day proliferation
[25] = Cytotoxicity, CellTiter Glo; type: cell-based; details: human, MV4;11 cells, 5-day proliferation
[26] = Cytotoxicity, CellTiter Glo; type: cell-based; details: human, K562 cells, 5-day proliferation
[27] = Cytotoxicity, CellTiter Glo; type: cell-based; details: human, 22RV1 cells, 5-day proliferation
[28] = Cytotoxicity, CellTiter Glo; type: cell-based; details: human, Calu6 cells, 5-day proliferation
[29] = Cytotoxicity, CellTiter Glo; type: cell-based; details: human, DU145 cells, 5-day proliferation
[30] = Cytotoxicity, CellTiter Glo; type: cell-based; details: human, LN229 cells, 5-day proliferation
[31] = Cytotoxicity, CellTiter Glo; type: cell-based; details: human, LNCap cells, 5-day proliferation
[32] = Cytotoxicity, CellTiter Glo; type: cell-based; details: human, SKBR3 cells, 5-day proliferation

Question: With `COc1cc2c(NC3CCN(C(C)C)CC3)nc(C3CCCCC3)nc2cc1OCCCN1CCCC1` [UNC0638, reference compound] as the compound, how does the “reduction of cellular levels of H3K9Me2” value ([1]; 3 μM) read?
Answer: ~50%

Question: What about the “H3K9me2 % inhibition, single well of triplicate” value (shortened to “H3K9me2 % inhibition”) ([1]; 0.03 uM) of the same compound?
Answer: 17.8107% and 15.8006%

Question: What about the “H3K9me2 % inhibition” value ([1]; 0.1 uM) of the same compound?
Answer: 27.68% and 25.03%

Question: And the “H3K9me2 % inhibition” value ([1]; 0.3 uM)?
Answer: 41.05% and 40.37%

Question: What about the “H3K9me2 % inhibition” value ([1]; 1 uM) of the same compound?
Answer: 43.21% and 47.35%

Question: What about the “H3K9me2 % inhibition” value ([1]; 3 uM) of the same compound?
Answer: 48.22% and 49.38%

Question: What about the inhibition at 0.03 µM ([1]; 0.03 uM, n=3, read-out: H3K9me2 % inhibition, average) of the same compound?
Answer: 14.6%

Question: And the inhibition at 0.03 µM ([1]; 0.03 uM, read-out: H3K9me2 % inhibition, single well of triplicate)?
Answer: 10%

Question: And the inhibition at 0.1 µM ([1]; 0.1 uM, n=3, read-out: H3K9me2 % inhibition, average)?
Answer: 25.8%

Question: And the inhibition at 0.1 µM ([1]; 0.1 uM, read-out: H3K9me2 % inhibition, single well of triplicate)?
Answer: 24.6%

Question: And the inhibition at 0.3 µM ([1]; 0.3 uM, n=3, read-out: H3K9me2 % inhibition, average)?
Answer: 40.8%

Question: What about the inhibition at 0.3 µM ([1]; 0.3 uM, read-out: H3K9me2 % inhibition, single well of triplicate) of the same compound?
Answer: 41.1%

Question: And the inhibition at 1 µM ([1]; 1 uM, n=3, read-out: H3K9me2 % inhibition, average)?
Answer: 45.2%

Question: What about the inhibition at 1 µM ([1]; 1 uM, read-out: H3K9me2 % inhibition, single well of triplicate) of the same compound?
Answer: 44.9%

Question: What about the inhibition at 3 µM ([1]; 3 uM, n=3, read-out: H3K9me2 % inhibition, average) of the same compound?
Answer: 48.5%

Question: And the inhibition at 3 µM ([1]; 3 uM, read-out: H3K9me2 % inhibition, single well of triplicate)?
Answer: 47.8%

Question: What about the “cell viability as measured by total histone H3” value ([1]; versus no treatment) of the same compound?
Answer: No difference in cell viability

Question: And the “effect on PBMC viability (Caspase 3/7 activity and CellTiter Glo)” value [2]?
Answer: did at higher concentrations

Question: What about the IC50 at 7 day [3] of the same compound?
Answer: 1900 nM

Question: What about the IC50 at 7 day [4] of the same compound?
Answer: 1200 nM

Question: What about the IC50 at 7 day [5] of the same compound?
Answer: 200 nM

Question: And the IC50 at 7 day [6]?
Answer: 200 nM

Question: What about the IC50 at 7 day [7] of the same compound?
Answer: 400 nM

Question: What about the IC50 at 7 day [8] of the same compound?
Answer: 1200 nM

Question: And the IC50 at 7 day [9]?
Answer: 500 nM

Question: What about the IC50 at 7 day [10] of the same compound?
Answer: 100 nM

Question: What about the IC50 at 7 day [11] of the same compound?
Answer: 4400 nM

Question: And the IC50 at 7 day [12]?
Answer: 600 nM

Question: And the IC50 at 12 day [13]?
Answer: 100 nM

Question: And the IC50 at 12 day [14]?
Answer: 600 nM

Question: And the IC50 at 5 day [15]?
Answer: 4900 nM

Question: And the IC50 at 5 day [16]?
Answer: 3100 nM

Question: And the IC50 at 5 day [17]?
Answer: 5100 nM

Question: What about the IC50 at 5 day [18] of the same compound?
Answer: 5600 nM

Question: And the IC50 at 5 day [19]?
Answer: 3900 nM

Question: What about the IC50 at 5 day [20] of the same compound?
Answer: 4400 nM

Question: What about the IC50 at 5 day [21] of the same compound?
Answer: 4000 nM

Question: What about the IC50 at 5 day [22] of the same compound?
Answer: 1100 nM

Question: And the IC50 at 5 day [23]?
Answer: 6500 nM

Question: And the IC50 at 5 day [24]?
Answer: 4600 nM

Question: And the IC50 at 5 day [25]?
Answer: 1700 nM

Question: And the IC50 at 5 day [26]?
Answer: 5300 nM

Question: What about the IC50 at 5 day [27] of the same compound?
Answer: 200 nM

Question: And the IC50 at 5 day [28]?
Answer: 500 nM

Question: What about the IC50 at 5 day [29] of the same compound?
Answer: 700 nM

Question: What about the IC50 at 5 day [30] of the same compound?
Answer: 500 nM

Question: And the IC50 at 5 day [31]?
Answer: 300 nM

Question: And the IC50 at 5 day [32]?
Answer: 600 nM
